# Test results published in patent US7132504B2, “Hepatitis C virus inhibitors” (Bristol-Myers Squibb Company, priority 2003, dated 2006).
# Molecular target: BMS strain of the NS3/4A protease complex (UniProt P27958, C1454S/C1711G, species not given/STRAIN_BMS)
# Assay: Recombinant HCV NS3/4A protease complex FRET peptide assay, BMS strain
# Type: biochemical, HCV genotype 1a (BMS strain)
# Description: The purpose of this in vitro assay was to measure the inhibition of HCV NS3 protease complexes, derived from the BMS strain, H77 strain or J416S strain, as described below, by compounds of the present invention. This assay provides an indication of how effective compounds of the present invention would be in inhibiting HCV proteolytic activity.
# Serum from an HCV-infected patient was obtained from Dr. T. Wright, San Francisco Hospital. An engineered full-length cDNA (compliment deoxyribonucleic acid) template of the HCV genome (BMS strain) was constructed from DNA fragments obtained by reverse transcription-PCR (RT-PCR) of serum RNA (ribonucleic acid) and using primers selected on the basis of homology between other genotype 1a strains. From the determination of the entire genome sequence, a genotype 1a was assigned to the HCV isolate according to the classification of Simmonds et al. (See P Simmonds, K A Rose, S Graham, S W Chan, F McOmish, B C Dow, E A Follett, P L Yap and H Marsden, J. Clin. Microbiol., 31(6), 1493–1503 (1993)). […]
smiles,measurement,value
C=CC1C[C@]1(NC(=O)[C@@H]1C[C@@H](Oc2cc(-c3ccccc3)nc3cc(OC)ccc23)CN1C(=O)[C@@H](NC(=O)OC)C(C)(C)C)C(=O)NS(=O)(=O)N(C)Cc1ccccc1 (stereo partly shown) [Compound 9],IC50,128 nM
